Results reported in publication PMC8316815, “Overexpression of ABCG2 Confers Resistance to MLN7243, a Ubiquitin-Activating Enzyme (UAE) Inhibitor” (Frontiers in Cell and Developmental Biology, 2021).

Tests used:
ABCG2 [1] = target: T1, ABCG2 (Homo sapiens, UniProt Q9UNQ0); test: ABCG2 ATPase stimulation in membrane vesicles; supported by HPLC accumulation in HEK293/ABCG2-WT cells; format: biochemical; design: ABCG2 membrane vesicles (PREDEASY ATPase Kit)
T1 sequence (Q9UNQ0 1-655): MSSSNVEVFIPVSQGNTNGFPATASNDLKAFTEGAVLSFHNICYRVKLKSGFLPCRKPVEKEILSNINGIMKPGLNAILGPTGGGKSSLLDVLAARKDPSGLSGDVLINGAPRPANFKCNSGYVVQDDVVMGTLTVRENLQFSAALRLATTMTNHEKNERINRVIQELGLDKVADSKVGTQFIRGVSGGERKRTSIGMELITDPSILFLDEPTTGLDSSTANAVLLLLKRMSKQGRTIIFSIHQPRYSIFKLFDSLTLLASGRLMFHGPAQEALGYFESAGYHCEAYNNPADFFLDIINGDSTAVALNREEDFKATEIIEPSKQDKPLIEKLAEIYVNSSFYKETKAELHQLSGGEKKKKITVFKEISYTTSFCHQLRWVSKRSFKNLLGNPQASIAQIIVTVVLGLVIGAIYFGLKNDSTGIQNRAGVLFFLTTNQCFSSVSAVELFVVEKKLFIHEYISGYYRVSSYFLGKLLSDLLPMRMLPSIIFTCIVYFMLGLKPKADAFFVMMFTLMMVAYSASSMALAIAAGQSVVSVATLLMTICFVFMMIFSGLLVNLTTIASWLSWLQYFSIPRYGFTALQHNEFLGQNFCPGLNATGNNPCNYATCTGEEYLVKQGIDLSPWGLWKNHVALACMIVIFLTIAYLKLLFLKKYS

ABCG2 [2] = target: T1, ABCG2; test: [3H]-mitoxantrone accumulation in NCI-H460 and NCI-H460/TPT10 cells, restored by Ko143; format: cell-based; design: ABCG2-overexpressing NCI-H460/TPT10 cells

For `NS(=O)(=O)OC[C@H]1C[C@@H](Nc2ccnc3cc(-c4cccc(SC(F)(F)F)c4)nn23)[C@H](O)[C@@H]1O` [MLN7243], the EC50 (ABCG2 [1]) was 1780 nM.
In the case of `O=C1c2c(O)ccc(O)c2C(=O)c2c(NCCNCCO)ccc(NCCNCCO)c21` [mitoxantrone], the “[3H]-mitoxantrone accumulation in NCI-H460 and NCI-H460/TPT10 cells, restored by” value (ABCG2 [2]) is reported as “suggesting a large portion of mitoxantrone was pumped out from the cells by ABCG2 transporter”.
